Assay results reported in patent US11666642B2, “PDE5 compositions and methods for immunotherapy” (Obsidian Therapeutics, Inc., priority 2017, dated 2023).

What was measured:
Assay type in all cases: cell-based, human
[1] = test system: hPDE5 mutants fused to GFP in HCT116 cells; experiment: Vardenafil dose response 48 hours, fold change in GFP MFI over DMSO; conditions: 0.1 and 0.3 micro molar
Experimental: Combination mutants were generated as described in Example 9. […] Mean fluorescence intensity (MFI) of GFP was measured by FACS.

[2] = test system: hPDE5 mutants fused to GFP in HCT116 cells; experiment: Tadalafil dose response of combination mutants, MFI by FACS
Experimental: (§1) The response of hPDE5 combination mutants to increasing doses of Tadalafil was tested. HCT116 cells transduced with hPDE5 constructs were treated with Tadalafil for 24 hours at doses ranging from 0.14 to 100 μM. Mean fluorescence intensity (MFI) was measured by FACS. Parental HCT116 and cells expressing OT-hPDE5N-019 comprising hPDE5 wildtype construct were also included as controls. The response of the combination mutants to Tadalafil was compared to the response of the single mutant construct OT-hPDE5N-020. The stabilization ratio (SR) was calculated as the fold change in GFP intensity in Tadalafil treated samples compared to treatment with DMSO (i.e. in the absence of ligand) with the same construct. The destabilizing mutation coefficient was calculated as the fold change in GFP intensity in the hPDE5 mutant constructs compared to the hPDE5 wildtype construct (OT-hPDE5N-0019) in the absence of the ligand. Destabilizing mutation coefficient less than 1 are desirable. Stabilization ratios greater than 1 are desired in DDs.

[3] = test system: hPDE5 mutants fused to GFP in HCT116 cells; experiment: Vardenafil dose response of combination mutants, MFI by FACS; conditions: for MFI / SR: 24 hours
Experimental: (§2) Mean fluorescence intensity (MFI) was measured by FACS. Parental HCT116 and cells expressing OT-hPDE5N-019 comprising hPDE5 wildtype construct were also included as controls. […] The destabilizing mutation coefficient ratio was calculated as the fold change in GFP intensity in the hPDE5 mutant constructs compared to the hPDE5 wildtype construct (OT-hPDE5N-019) in the absence of the ligand. Destabilizing mutation co-efficient ratios less than 1 are desirable. Stabilization ratios greater than 1 are desired in DDs.

[4] = test system: hPDE5 truncation mutants (R732L) fused to AcGFP in HCT-116 cells; experiment: Expression of hPDE5 truncation mutants, GFP MFI by FACS
Source text: Several truncation mutants of the full length hPDE5 were generated to identify regions beyond the […] catalytic domain that may serve as a template for identifying DDs. The truncation mutants tested included amino acids 535-860 of hPDE5 WT (E535-Q860), amino acids 535 to 836 of hPDE5 WT (E535-S836), amino acids 590 to 860 of hPDE5 WT (M590-Q860), amino acids 590 to 836 of hPDE5 WT (M590-S836), wherein the amino acids positions are with respect to SEQ ID NO. 1. The DD mutation R732L was incorporated into all truncation mutants and its destabilizing potential was compared to E535-Q860 wildtype by fusing the mutants to an SG linker and reporter, AcGFP. […] As a control, parental untransduced cells and cells expressing OT-hPDE5N-001, or OT-hPDE5N-028 were also included in the analysis. The mean fluorescence intensity (MFI) of GFP was analyzed by FACS. […] The destabilizing mutation coefficient was calculated as the fold change in GFP intensity in the hPDE5 mutant constructs compared to the hPDE5 wildtype construct (OT-hPDE5N-019) in the absence of the ligand. Destabilizing mutation coefficients less than 1 are desirable. Stabilization ratios greater than 1 are desired in DDs.

[5] = test system: hPDE5 mutants fused to GFP in HCT116 cells; experiment: Response to Sildenafil (5 or 0.5 μM) over time, MFI by FACS
Experimental: Mean fluorescence intensity (MFI) was measured by FACS. […] The destabilizing mutation coefficient was calculated as the fold change in GFP intensity in the hPDE5 mutant constructs compared to the hPDE5 wildtype construct (OT-hPDE5N-019) in the absence of the ligand. Destabilizing mutation coefficient less than 1 are desirable. Stabilization ratios greater than 1 are desired in DDs. The results and stabilization ratios for time course experiments with 5 or 0.5 μM are presented in Table 30 and Table 31 respectively.

[6] = test system: hPDE5 mutants fused to GFP in HCT116 cells; experiment: Comparative analysis of hPDE5 ligands: stabilization ratios at the highest concentrations
Experimental: Mean fluorescence intensity (MFI) was measured by FACS. Parental HCT116 and cells expressing OT-hPDE5N-019 wildtype construct were also included as controls. […] The destabilizing mutation coefficient ratio was calculated as the fold change in GFP intensity in the hPDE5 mutant constructs compared to the hPDE5 wildtype construct (OT-hPDE5N-019) in the absence of the ligand. Destabilizing mutation coefficient ratios less than 1 are desirable. Stabilization ratios greater than 1 are desired in DDs.
as §2, §1

Substance: OT-hPDE5N-020: construct consisting of E535-Q860 amino acids of hPDE5 with the R732L mutant, SG linker, AcGFP; single mutant construct
- ligand dependent stabilization (fold change in MFI over DMSO) at lower doses of Vardenafil [1]: observed at lower doses i.e. 0.1 and 0.3 micro molar concentrations of Vardenafil
- MFI ([2]; DMSO, 24 hours, HCT116): 3806
- destabilizing mutation coefficient ([2]; Tadalafil dose response experiment, absence of ligand, vs OT-hPDE5N-019): 0.1
- MFI ([3]; DMSO, HCT116): 7829
- SR ([3]; Vardenafil 0.04 μM vs DMSO): 1.88
- MFI ([3]; Vardenafil 0.04 μM): 14745
- SR ([3]; Vardenafil 0.12 μM vs DMSO): 2.15
- MFI ([3]; Vardenafil 0.12 μM): 16866
- SR ([3]; Vardenafil 0.37 μM vs DMSO): 3.17
- MFI ([3]; Vardenafil 0.37 μM): 24847
- SR ([3]; Vardenafil 1.11 μM vs DMSO): 3.94
- MFI ([3]; Vardenafil 1.11 μM): 30879
- SR ([3]; Vardenafil 3.33 μM vs DMSO): 4.54
- MFI ([3]; Vardenafil 3.33 μM): 35564
- SR ([3]; Vardenafil 10 μM vs DMSO): 4.99
- MFI ([3]; Vardenafil 10 μM): 39089
- SR ([3]; Vardenafil 30 μM vs DMSO): 9.62
- MFI ([3]; Vardenafil 30 μM): 75323
- destabilizing mutation coefficient ([3]; Vardenafil dose response experiment, absence of ligand, vs OT-hPDE5N-019): 0.13
- ligand dependent stabilization (stabilization ratio) of truncation mutants ([4]; 10 μM Sildenafil or Vardenafil, 48 hours, HCT-116): strongest ligand dependent stabilization with both ligands
- Sildenafil Stabilization ratio ([4]; 10 μM Sildenafil vs DMSO, 48 hours): 6.02
- Vardenafil Stabilization ratio ([4]; 10 μM Vardenafil vs DMSO, 48 hours): 10.08
- MFI Sildenafil ([4]; HCT-116, 10 μM Sildenafil, 48 hours): 55636
- MFI Vardenafil ([4]; HCT-116, 10 μM Vardenafil, 48 hours): 93216
- MFI DMSO ([4]; HCT-116, DMSO, 48 hours): 9248
- destabilizing mutation coefficient ([4]; vs hPDE5 wildtype construct in absence of ligand): 0.14
- stabilization ratios over time, Sildenafil 0.5 μM ([5]; 0-72 hours, HCT116): greater stabilization
- MFI ([5]; Sildenafil 0.5 μM, 0 hours): 2727
- MFI ([5]; Sildenafil 0.5 μM, 4 hours): 4127
- Stabilization ratio ([5]; Sildenafil 0.5 μM, 4 hours): 1.51
- MFI ([5]; Sildenafil 0.5 μM, 8 hours): 5461
- Stabilization ratio ([5]; Sildenafil 0.5 μM, 8 hours): 2.00
- MFI ([5]; Sildenafil 0.5 μM, 12 hours): 9058
- Stabilization ratio ([5]; Sildenafil 0.5 μM, 12 hours): 3.32
- MFI ([5]; Sildenafil 0.5 μM, 16 hours): 14469
- Stabilization ratio ([5]; Sildenafil 0.5 μM, 16 hours): 5.31
- MFI ([5]; Sildenafil 0.5 μM, 20 hours): 16142
- Stabilization ratio ([5]; Sildenafil 0.5 μM, 20 hours): 5.92
- MFI ([5]; Sildenafil 0.5 μM, 24 hours): 20524
- Stabilization ratio ([5]; Sildenafil 0.5 μM, 24 hours): 7.53
- MFI ([5]; Sildenafil 0.5 μM, 48 hours): 45754
- Stabilization ratio ([5]; Sildenafil 0.5 μM, 48 hours): 16.78
- MFI ([5]; Sildenafil 0.5 μM, 72 hours): 58786
- Stabilization ratio ([5]; Sildenafil 0.5 μM, 72 hours): 21.56
- MFI ([5]; Sildenafil 5 μM, 0 hours): 2668
- MFI ([5]; Sildenafil 5 μM, 4 hours): 4236
- Stabilization ratio ([5]; Sildenafil 5 μM, 4 hours): 1.59
- MFI ([5]; Sildenafil 5 μM, 8 hours): 5672
- Stabilization ratio ([5]; Sildenafil 5 μM, 8 hours): 2.13
- MFI ([5]; Sildenafil 5 μM, 12 hours): 9097
- Stabilization ratio ([5]; Sildenafil 5 μM, 12 hours): 3.41
- MFI ([5]; Sildenafil 5 μM, 16 hours): 14855
- Stabilization ratio ([5]; Sildenafil 5 μM, 16 hours): 5.57
- MFI ([5]; Sildenafil 5 μM, 20 hours): 15529
- Stabilization ratio ([5]; Sildenafil 5 μM, 20 hours): 5.82
- MFI ([5]; Sildenafil 5 μM, 24 hours): 20955
- Stabilization ratio ([5]; Sildenafil 5 μM, 24 hours): 7.85
- MFI ([5]; Sildenafil 5 μM, 48 hours): 46604
- Stabilization ratio ([5]; Sildenafil 5 μM, 48 hours): 17.47
- MFI ([5]; Sildenafil 5 μM, 72 hours): 58479
- Stabilization ratio ([5]; Sildenafil 5 μM, 72 hours): 21.92
- Stabilization ratio ([6]; Sildenafil (30 μM)): 7.78
- Stabilization ratio ([6]; Tadalafil (100 μM)): 8.94
- Stabilization ratio ([6]; Vardenafil (30 μM)): 9.62
